Assays:
Assay in all cases: cells
Type in all cases: functional, cell-based, Homo sapiens
DEL = system: DEL;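 also: growth inhibition of the human DEL cell line, read out with a cell viability assay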
Description: SANGER: Inhibition of human DEL cell growth in a cell viability assay.

COLO-829 = system: COLO-829
Description: SANGER: Inhibition of human COLO-829 cell growth in a cell viability assay.

MFH-ino = system: MFH-ino;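 also: growth inhibition of human MFH-ino cells, read out by a cell viability assay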
Description: SANGER: Inhibition of human MFH-ino cell growth in a cell viability assay.

KARPAS-45 = system: KARPAS-45;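 also: inhibition of cell line growth, read out through a viability assay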
Description: SANGER: Inhibition of human KARPAS-45 cell growth in a cell viability assay.

EW-18 = system: EW-18;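 also: growth inhibition of EW-18 cells, read out by a cell viability assay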
Description: SANGER: Inhibition of human EW-18 cell growth in a cell viability assay.

RXF 393 = system: RXF 393;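 also: growth inhibition of human RXF 393 cells, read out with a cell viability assay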
Description: SANGER: Inhibition of human RXF393 cell growth in a cell viability assay.

COLO-320-HSR = system: COLO-320-HSR;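 also: growth inhibition of COLO-320-HSR cells, determined with a cell viability assay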
Description: SANGER: Inhibition of human COLO-320-HSR cell growth in a cell viability assay.

NCI-H1355 = system: NCI-H1355;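 also: growth inhibition of human NCI-H1355 cells, read out by a cell viability assay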
Description: SANGER: Inhibition of human NCI-H1355 cell growth in a cell viability assay.

MN-60 = system: MN-60;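 also: growth inhibition of the MN-60 cell line, determined with a cell viability assay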
Description: SANGER: Inhibition of human MN-60 cell growth in a cell viability assay.

no-10 = system: no-10;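 also: growth inhibition of no-10 cells, read out with a cell viability assay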
Description: SANGER: Inhibition of human no-10 cell growth in a cell viability assay.

KINGS-1 = system: KINGS-1;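 also: cell viability assay measuring suppression of KINGS-1 cell growth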
Description: SANGER: Inhibition of human KINGS-1 cell growth in a cell viability assay.

J-RT3-T3-5 = system: J-RT3-T3-5;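 also: cell viability assay measuring growth inhibition of human J-RT3-T3-5 cells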
Description: SANGER: Inhibition of human J-RT3-T3-5 cell growth in a cell viability assay.

HCC1187 = system: HCC1187;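 also: growth inhibition of HCC1187 cells, read out with a cell viability assay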
Description: SANGER: Inhibition of human HCC1187 cell growth in a cell viability assay.

CCRF-CEM = system: CCRF-CEM;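 also: inhibition of CCRF-CEM cell growth, measured by a cell viability assay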
Description: SANGER: Inhibition of human CCRF-CEM cell growth in a cell viability assay.

A704 = system: A704;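 also: growth inhibition of human A704 cells, read out with a cell viability assay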
Description: SANGER: Inhibition of human A704 cell growth in a cell viability assay.

HT-144 = system: HT-144
Description: SANGER: Inhibition of human HT-144 cell growth in a cell viability assay.

HCC2218 = system: HCC2218;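 also: cell viability assay read-out, with IC50 given as the concentration that inhibits growth of the cell line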
Description: SANGER: Inhibition of human HCC2218 cell growth in a cell viability assay.

JVM-3 = system: JVM-3;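 also: growth inhibition of human JVM-3 cells, read out with a cell viability assay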
Description: SANGER: Inhibition of human JVM-3 cell growth in a cell viability assay.

KE-37 = system: KE-37;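 also: growth inhibition of KE-37 cells, read out with a cell viability assay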
Description: SANGER: Inhibition of human KE-37 cell growth in a cell viability assay.

MOLT-16 = system: MOLT-16;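 also: growth inhibition of human MOLT-16 cells, read out with a cell viability assay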
Description: SANGER: Inhibition of human MOLT-16 cell growth in a cell viability assay.

RKO = system: RKO;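 also: growth inhibition of human RKO cells, read out with a cell viability assay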
Description: SANGER: Inhibition of human RKO cell growth in a cell viability assay.

NB5 = system: NB5;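 also: growth inhibition of NB5 cells, read out as cell viability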
Description: SANGER: Inhibition of human NB5 cell growth in a cell viability assay.

Ramos-2G6-4C10 = system: Ramos-2G6-4C10;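 also: growth inhibition of the cell line, measured by a cell viability read-out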
Description: SANGER: Inhibition of human Ramos-2G6-4C10 cell growth in a cell viability assay.

GR-ST = system: GR-ST
Description: SANGER: Inhibition of human GR-ST cell growth in a cell viability assay.

KGN = system: KGN;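 also: growth inhibition of KGN cells, read out with a cell viability assay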
Description: SANGER: Inhibition of human KGN cell growth in a cell viability assay.

MMAC-SF = system: MMAC-SF;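 also: growth inhibition of human MMAC-SF cells, read out with a cell viability assay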
Description: SANGER: Inhibition of human MMAC-SF cell growth in a cell viability assay.

BB30-HNC = system: BB30-HNC;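 also: growth inhibition of the cultured cell line, read out by a cell viability assay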
Description: SANGER: Inhibition of human BB30-HNC cell growth in a cell viability assay.

NCI-H1648 = system: NCI-H1648;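 also: cell viability assay measuring inhibition of NCI-H1648 cell growth, from the Sanger screening data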
Description: SANGER: Inhibition of human NCI-H1648 cell growth in a cell viability assay.

ES4 = system: ES4;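 also: growth inhibition of human ES4 cells, read out by a cell viability assay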
Description: SANGER: Inhibition of human ES4 cell growth in a cell viability assay.

LS-1034 = system: LS-1034
Description: SANGER: Inhibition of human LS-1034 cell growth in a cell viability assay.

A101D = system: A101D;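 also: growth inhibition of the cell line, measured with a viability assay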
Description: SANGER: Inhibition of human A101D cell growth in a cell viability assay.

EKVX = system: EKVX;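 also: growth inhibition of human EKVX cells, read out with a cell viability assay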
Description: SANGER: Inhibition of human EKVX cell growth in a cell viability assay.

LB373-MEL-D = system: LB373-MEL-D;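 also: growth inhibition of the cell line, read out in a cell viability assay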
Description: SANGER: Inhibition of human LB373-MEL-D cell growth in a cell viability assay.

DB = system: DB
Description: SANGER: Inhibition of human DB cell growth in a cell viability assay.

EW-24 = system: EW-24;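 also: human EW-24 cancer cell line, growth inhibition read out via a cell viability assay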
Description: SANGER: Inhibition of human EW-24 cell growth in a cell viability assay.

NOMO-1 = system: NOMO-1;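 also: growth inhibition of human NOMO-1 cells measured by a cell viability assay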
Description: SANGER: Inhibition of human NOMO-1 cell growth in a cell viability assay.

IST-SL1 = system: IST-SL1;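 also: growth inhibition of human IST-SL1 cells, read out with a cell viability assay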
Description: SANGER: Inhibition of human IST-SL1 cell growth in a cell viability assay.

SNU1 = system: SNU1;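 also: growth inhibition of human NCI-SNU-1 cells, measured with a cell viability assay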
Description: SANGER: Inhibition of human NCI-SNU-1 cell growth in a cell viability assay.

KALS-1 = system: KALS-1;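 also: growth inhibition of KALS-1 cells, determined with a cell viability assay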
Description: SANGER: Inhibition of human KALS-1 cell growth in a cell viability assay.

DOHH-2 = system: DOHH-2;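 also: growth inhibition of human DOHH-2 cells, read out with a cell viability assay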
Description: SANGER: Inhibition of human DOHH-2 cell growth in a cell viability assay.

A253 cell line = system: A253 cell line;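 also: growth inhibition of A253 cells, read out with a cell viability assay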
Description: SANGER: Inhibition of human A253 cell growth in a cell viability assay.

D-392MG = system: D-392MG
SNB-75 = system: SNB-75;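 also: cell viability assay measuring growth inhibition of human SNB-75 cells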
Description: SANGER: Inhibition of human SNB75 cell growth in a cell viability assay.

EC-GI-10 = system: EC-GI-10
Description: SANGER: Inhibition of human EC-GI-10 cell growth in a cell viability assay.

NCI-H1581 = system: NCI-H1581;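 also: cell growth inhibition read out by a viability assay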
Description: SANGER: Inhibition of human NCI-H1581 cell growth in a cell viability assay.

RH-1 = system: RH-1;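 also: growth inhibition of human RH-1 cells, read out with a cell viability assay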
Description: SANGER: Inhibition of human RH-1 cell growth in a cell viability assay.

C2BBe1 = system: C2BBe1;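 also: growth inhibition of C2BBe1 cells, read out through a viability assay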
Description: SANGER: Inhibition of human C2BBe1 cell growth in a cell viability assay.

SW684 = system: SW684;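 also: growth inhibition of human SW684 cells, measured by a cell viability assay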
Description: SANGER: Inhibition of human SW684 cell growth in a cell viability assay.

SF-268 = system: SF-268;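 also: growth inhibition of SF-268 cells determined with a cell viability assay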
Description: SANGER: Inhibition of human SF268 cell growth in a cell viability assay.

Compound: O=C(O)c1ccc(-c2c[nH]c3ncc(-c4ccccc4)cc23)cc1C1CCCC1 [GSK-650394]
- IC50 (DEL; Homo sapiens, DEL): 5.11 µM
- IC50 (COLO-829; Homo sapiens, COLO-829): > 16 µM
- IC50 (MFH-ino; Homo sapiens, MFH-ino): 1.99 µM
- IC50 (KARPAS-45; Homo sapiens, KARPAS-45): > 16 µM
- IC50 (EW-18; Homo sapiens, EW-18): > 16 µM
- IC50 (RXF 393; Homo sapiens, RXF 393): > 16 µM
- IC50 (COLO-320-HSR; Homo sapiens, COLO-320-HSR): > 16 µM
- IC50 (NCI-H1355; Homo sapiens, NCI-H1355): > 16 µM
- IC50 (MN-60; Homo sapiens, MN-60): > 16 µM
- IC50 (no-10; Homo sapiens): > 16 µM
- IC50 (KINGS-1; Homo sapiens, KINGS-1): > 16 µM
- IC50 (J-RT3-T3-5; Homo sapiens, J-RT3-T3-5): > 16 µM
- IC50 (HCC1187; Homo sapiens, HCC1187): > 16 µM
- IC50 (CCRF-CEM; Homo sapiens, CCRF-CEM): > 16 µM
- IC50 (A704; Homo sapiens, A704): > 16 µM
- IC50 (HT-144; Homo sapiens, HT-144): > 16 µM
- IC50 (HCC2218; Homo sapiens, HCC2218): > 16 µM
- IC50 (JVM-3; Homo sapiens, JVM-3): > 16 µM
- IC50 (KE-37; Homo sapiens, KE-37): > 16 µM
- IC50 (MOLT-16; Homo sapiens, MOLT-16): 3.52 µM
- IC50 (RKO; Homo sapiens, RKO): 1.58 µM
- IC50 (NB5; Homo sapiens, NB5): > 16 µM
- IC50 (Ramos-2G6-4C10; Homo sapiens, Ramos-2G6-4C10): > 16 µM
- IC50 (GR-ST; Homo sapiens, GR-ST): > 16 µM
- IC50 (KGN; Homo sapiens, KGN): > 16 µM
- IC50 (MMAC-SF; Homo sapiens, MMAC-SF): > 16 µM
- IC50 (BB30-HNC; Homo sapiens, BB30-HNC): 2.33 µM
- IC50 (NCI-H1648; Homo sapiens, NCI-H1648): > 16 µM
- IC50 (ES4; Homo sapiens, ES4): 4.06 µM
- IC50 (LS-1034; Homo sapiens, LS-1034): > 16 µM
- IC50 (A101D; Homo sapiens, A101D): 9.27 µM
- IC50 (EKVX; Homo sapiens, EKVX): > 16 µM
- IC50 (LB373-MEL-D; Homo sapiens, LB373-MEL-D): > 16 µM
- IC50 (DB; Homo sapiens, DB): > 16 µM
- IC50 (EW-24; Homo sapiens, EW-24): > 16 µM
- IC50 (NOMO-1; Homo sapiens, NOMO-1): > 16 µM
- IC50 (IST-SL1; Homo sapiens, IST-SL1): > 16 µM
- IC50 (SNU1; Homo sapiens, SNU1): > 16 µM
- IC50 (KALS-1; Homo sapiens, KALS-1): > 16 µM
- IC50 (DOHH-2; Homo sapiens, DOHH-2): > 16 µM
- IC50 (A253 cell line; Homo sapiens, A253): > 16 µM
- IC50 (D-392MG; Homo sapiens, D-392MG): > 16 µM
- IC50 (SNB-75; Homo sapiens, SNB-75): > 16 µM
- IC50 (EC-GI-10; Homo sapiens, EC-GI-10): > 16 µM
- IC50 (NCI-H1581; Homo sapiens, NCI-H1581): > 16 µM
- IC50 (RH-1; Homo sapiens, RH-1): 7.73 µM
- IC50 (C2BBe1; Homo sapiens, C2BBe1): > 16 µM
- IC50 (SW684; Homo sapiens, SW684): > 16 µM
- IC50 (SF-268; Homo sapiens, SF-268): > 16 µM

Compound: BLEOMYCIN
- IC50 (DEL; del): 0.48 µM
- IC50 (COLO-829; colo-829): 37 µM
- IC50 (MFH-ino; mfh-ino): 0.00265 µM
- IC50 (KARPAS-45; karpas-45): 213 µM
- IC50 (EW-18; ew-18): 75.8 µM
- IC50 (RXF 393; rxf 393): 176 µM
- IC50 (COLO-320-HSR; colo-320-hsr): 3.43 µM
- IC50 (NCI-H1355; nci-h1355): 8.2 µM
- IC50 (MN-60; mn-60): 4.05 µM
- IC50 (no-10): 27.1 µM
- IC50 (KINGS-1; kings-1): 1270 µM
- IC50 (J-RT3-T3-5; j-rt3-t3-5): 0.712 µM
- IC50 (HCC1187; hcc1187): 32.9 µM
- IC50 (CCRF-CEM; ccrf-cem): 0.0787 µM
- IC50 (A704; a704): 10.6 µM
- IC50 (HT-144; ht-144): 0.0551 µM
- IC50 (HCC2218; hcc2218): 41.9 µM
- IC50 (JVM-3; jvm-3): 429 µM
- IC50 (KE-37; ke-37): 25.9 µM
- IC50 (MOLT-16; molt-16): 29.5 µM
- IC50 (RKO; rko): 0.524 µM
- IC50 (NB5; nb5): 6.72 µM
- IC50 (Ramos-2G6-4C10; ramos-2g6-4c10): 9.88 µM
- IC50 (GR-ST; gr-st): 23.1 µM
- IC50 (KGN; kgn): 0.00371 µM
- IC50 (MMAC-SF; mmac-sf): 21.3 µM
- IC50 (BB30-HNC; bb30-hnc): 0.0163 µM
- IC50 (NCI-H1648; nci-h1648): 20.3 µM
- IC50 (ES4; es4): 0.0383 µM
- IC50 (LS-1034; ls-1034): 35.4 µM
- IC50 (A101D; a101d): 0.62 µM
- IC50 (EKVX; ekvx): 413 µM
- IC50 (LB373-MEL-D; lb373-mel-d): 56.4 µM
- IC50 (DB; db): 5.12 µM
- IC50 (EW-24; ew-24): 95.3 µM
- IC50 (NOMO-1; nomo-1): 4.2 µM
- IC50 (IST-SL1; ist-sl1): 54.6 µM
- IC50 (SNU1; snu1): 2.84 µM
- IC50 (KALS-1; kals-1): 11.7 µM
- IC50 (DOHH-2; dohh-2): 5.29 µM
- IC50 (A253 cell line; a253): 2.86 µM
- IC50 (D-392MG; d-392mg): 13.6 µM
- IC50 (SNB-75; snb-75): 1.61 µM
- IC50 (EC-GI-10; ec-gi-10): 305 µM
- IC50 (NCI-H1581; nci-h1581): 110 µM
- IC50 (RH-1; rh-1): 0.152 µM
- IC50 (C2BBe1; c2bbe1): 91.8 µM
- IC50 (SW684; sw684): 3870 µM
- IC50 (SF-268; sf-268): 1.32 µM
